Measured values published in patent US20040006070A1, “Intraspinal continuous infusion of midazolam hydrochloride for the treatment of pain” (priority 2002, published 2004).
“And” between values parts separate entries of the source, which are not always exact repeats. Equal entries are not always repeated. Structures can show the parent of a compound that is named as a salt.

Tests used:
[1] = rabbit, intrathecal bolus 0.1% midazolam or preservative-free midazolam in 0.3 ml, one or five days; cited from earlier work
[2] = Physiological data: indirect blood pressure, pulse, rectal temperature, weight; assay type: in vivo, sheep
Description: Daily rectal temperatures were taken and any behavioral/motor changes were noted. Gait monitoring will be conducted as described below based on a four-grade scale for the evaluation of behavioral and motor changes. Grade 0: animal standing, sheep is able to rise and ambulate without any difficulty. Grade 1: Shuffling of either rear leg or slight limp; slight distortion of normal spinal axis. Grade 2: Loss of righting reflex in one of the rear legs, sheep able to stand without assistance, but with some difficulty. Grade 3: Inability to maintain standing posture; attempts to help animal stand are unsuccessful.
Indirect blood pressure, pulse recording, pain testing (mechanical stimulus device, cold and warm water baths see description in procedure) and weight were taken on days 1, 3, 7, 15, 22, 29, 36, and 43. Venous blood samples (15 ml drawn from the jugular vein with Vacutainer brand blood collection tubes) for complete blood count, electrolytes, and extended blood chemistry were drawn on days 1, 15, and 43 (mild procedure only light hand restraint necessary).

[3] = double blinded sheep Chicken Hawk #87, 5 mg/day intrathecal infusion, day (1-43), hydrochloride
[4] = double blinded sheep Elmer Fudd #437, 5 mg/day intrathecal infusion, day (1-43), hydrochloride
[5] = double blinded sheep Leghorn II #815, 15 mg/day intrathecal infusion, day (1-43), hydrochloride
[6] = double blinded sheep Petunia #439, 15 mg/day intrathecal infusion, day (1-43), hydrochloride
[7] = double blinded sheep Porky #402, 5 mg/day intrathecal infusion, day (1-43), hydrochloride
[8] = double blinded sheep Roadrunner #84, 15 mg/day intrathecal infusion, day (1-43), hydrochloride
[9] = open label sheep #457 Tazz, 15 mg/day intrathecal infusion, day (1-43), hydrochloride
[10] = open label sheep #498 Toad, 10 mg/day intrathecal infusion, day (1-43), hydrochloride
[11] = open label sheep #518 Sandy, 5 mg/day intrathecal infusion, day (1-43), hydrochloride
[12] = open label sheep Dot #85, 15 mg/day intrathecal infusion, day (1-43), hydrochloride
[13] = open label sheep Wacko #83, 15 mg/day intrathecal infusion, day (1-43), hydrochloride
[14] = open label sheep Yacko #91, 15 mg/day intrathecal infusion, day (1-43), hydrochloride

Cc1ncc2n1-c1ccc(Cl)cc1C(c1ccccc1F)=NC2 [Midazolam, midazolam hydrochloride]
neurotoxicity [1]: neurotoxicity | Blood pressure Dia [2, 3]: 62 and 37 and 53 and 51 and 44 and 65 and 69 and 48 | Blood pressure Sys [2, 3]: 112 and 127 and 122 and 132 and 130 and 126 and 151 | Body Temp. Normal 101.3-104.0 [2, 3]: 102.4 and 102.6 and 102.8 and 102.2 and 102.0 | Pulse Rate Normal 55-115 [2, 3]: 75 and 83 and 63 and 101 and 79 and 88 and 84 and 82 | Blood pressure Sys [2, 4]: 122 and 138 and 119 and 131 and 150 and 136 and 139 and 120 | Body Temp. Normal 101.3-104.0 [2, 4]: 102.2 and 102.8 and 101.4 and 102.0 and 101.8 | Pulse Rate Normal 55-115 [2, 4]: 87 and 70 and 80 and 83 and 79 and 73 and 85 | Blood pressure Sys [2, 5]: 130 and 152 and 143 and 160 and 138 and 145 | Body Temp. Normal 101.3-104.0 [2, 5]: 104.2 and 102.4 and 102.8 and 102.2 and 102.6 | Pulse Rate Normal 55-115 [2, 5]: 111 and 144 and 88 and 125 and 121 and 97 and 89 and 87 | Blood pressure Dia [2, 6]: 34 and 49 and 44 and 32 and 26 and 45 | Blood pressure Sys [2, 6]: 133 and 152 and 126 and 132 and 123 and 114 and 120 and 142 | Body Temp. Normal 101.3-104.0 [2, 6]: 102.0 and 102.8 and 103.0 and 101.0 and 102.4 | Pulse Rate Normal 55-115 [2, 6]: 89 and 72 and 74 and 69 and 66 and 63 and 71 and 90 | Blood pressure Dia [2, 7]: 65 and 70 and 42 and 67 and 55 and 68 and 41 and 40 | Blood pressure Sys [2, 7]: 148 and 107 and 140 and 133 and 113 and 135 and 134 and 147 | Body Temp. Normal 101.3-104.0 [2, 7]: 102.0 and 102.6 and 101.0 and 101.2 and 102.2 | Pulse Rate Normal 55-115 [2, 7]: 87 and 99 and 89 and 100 and 90 and 86 and 108 | Blood pressure Dia [2, 8]: 75 and 77 and 49 and 42 and 50 and 51 and 40 | Blood pressure Sys [2, 8]: 137 and 124 and 132 and 116 and 144 | Body Temp. Normal 101.3-104.0 [2, 8]: 101.8 and 101.6 and 102.2 and 104.0 and 102.4 and 102.0 and 102.6 | Pulse Rate Normal 55-115 [2, 8]: 90 and 97 and 104 and 78 and 94 and 130 and 124 and 77 | Blood pressure Dia [2, 9]: 83 and 71 and 68 and 70 and 73 and 88 | Blood pressure sys [2, 9]: 151 and 154 and 145 and 147 and 135 | Body Temp. Normal 101.3-104.0 [2, 9]: 100.8 and 102.2 and 103.0 and 102.0 | Pulse Rate Normal 55-115 [2, 9]: 138 and 77 and 74 and 76 and 79 and 82 | Blood pressure Dia [2, 10]: 98 and 73 and 66 and 109 and 71 and 59 and 58 | Blood pressure Sys [2, 10]: 177 and 143 and 136 and 156 and 153 and 118 and 149 | Body Temp. Normal 101.3-104.0 [2, 10]: 102.0 and 104.2 and 102.8 and 102.4 and 101.8 and 103.0 and 103.2 | Pulse Rate Normal 55-115 [2, 10]: 98 and 79 and 95 and 77 and 104 and 67 and 89 and 78 | Blood pressure Sys [2, 11]: 180 and 150 and 141 and 152 and 147 and 169 and 164 and 185 | Body Temp. Normal 101.3-104.0 [2, 11]: 102.0 and 101.0 and 101.8 and 101.6 and 102.8 | Blood pressure Dia [2, 12]: 68 and 49 and 67 and 59 and 53 and 77 and 57 and 69 | Blood pressure Sys [2, 12]: 128 and 109 and 110 and 133 and 130 and 120 and 155 | Pulse Rate Normal 55-115 [2, 12]: 92 and 89 and 86 and 117 and 85 and 72 and 66 and 71 | Blood pressure Dia [2, 13]: 60 and 45 and 47 and 42 and 51 and 66 and 73 and 70 | Blood pressure Sys [2, 13]: 148 and 166 and 130 and 106 and 102 and 132 and 163 and 128 | Body Temp. Normal 101.3-104.0 [2, 13]: 102.0 and 102.4 and 102.6 | Pulse Rate Normal 55-115 [2, 13]: 104 and 98 and 91 and 92 and 99 and 84 and 75 | Blood pressure Sys [2, 14]: 138 and 143 and 156 and 110 and 151 and 160 and 149 | Pulse Rate Normal 55-115 [2, 14]: 115 and 80 and 84 and 86 and 72 and 82 and 66 and 69 | Blood pre-assure ([2]; sheep Rowdy #819, 10 mg): 136/75 | Pulse ([2]; sheep Rowdy #819, 10 mg): 122 | Blood pre-assure ([2]; sheep Rowdy #819, 15 mg): 143/77 | Pulse ([2]; sheep Rowdy #819, 15 mg): 94 | Respirations per minute ([2]; sheep Rowdy #819, 15 mg): 40 per minute
